Measurements from US11840686B2, “Modulation of prekallikrein (PKK) expression” (Ionis Pharmaceuticals, Inc., priority 2013, dated 2023).
Strand notation (5' to 3'): a small letter for the sugar, then the base; units joined by * are phosphorothioate-linked, units joined directly phosphodiester-linked; [ ] holds rarer units or linkages, { } end groups; capitals alone tell only the bases. e = 2'-O-(2-methoxyethyl) (MOE); k = constrained ethyl (cEt); [5mC] = 5-methylcytosine; d = 2'-deoxy (DNA)

Tested on: human PKK mRNA
Experiment: Antisense inhibition of human PKK mRNA in HepaRG cells, 1,000 nM, MOE/deoxy/cEt oligonucleotides (Example 3)
Type: cell-based
Conditions: HepaRG cells, 1,000 nM antisense oligonucleotide, Table 29
Summary of the method: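 HepaRG cells at 20,000 per well electroporated with 1,000 nM 16-mer MOE/cEt/deoxy gapmers (phosphorothioate, 5-methylcytosine). After about 24 h, PKK mRNA measured by qRT-PCR with primer probe set RTS3454, normalized to RIBOGREEN total RNA. Reported as percent inhibition versus untreated cells.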

Going from “548606 (e[5mC]*eG*kG*dT*dG*dG*dT*dG*dG*dG*dA*dT*dT*kG*kG*eT; antisense) [compound 548606]” to “548537 (antisense e[5mC]*e[5mC]*kT*d[5mC]*dA*dA*dT*d[5mC]*d[5mC]*d[5mC]*dA*dA*d[5mC]*k[5mC]*k[5mC]*eA) [compound 548537]”, the “% inhibition” value falls from 41% to 0%.

Going from “548605 (eT*eG*kG*d[5mC]*dG*dG*dG*dA*dT*dT*dG*dG*dT*kG*kG*eT; antisense) [compound 548605]” to “548587 (eT*eT*k[5mC]*dT*dG*dG*dG*dA*dA*dA*d[5mC]*dT*d[5mC]*kT*k[5mC]*eT; antisense) [compound 548587]”, the “% inhibition” value rises from 12% to 45%.

Same assay, conditions: HepaRG cells, electroporation with 1,000 nM antisense oligonucleotide, approx. 24 hours, PKK mRNA by RT-PCR (RTS3454), relative to untreated control cells; Table 25 experiment

First: 548221 (eA*e[5mC]*kT*d[5mC]*d[5mC]*dA*dG*d[5mC]*dA*dG*dA*dA*dA*kT*k[5mC]*e[5mC]; antisense) [compound 548221]
Second: 548186 (e[5mC]*eA*kA*d[5mC]*dA*d[5mC]*dA*d[5mC]*dA*dG*dT*d[5mC]*dA*kT*kG*eG; antisense) [compound 548186]
The “% inhibition” value of the first is higher: 49% for the first, 0% for the second.

Going from “548196 (e[5mC]*eA*kA*dT*dA*dT*dT*dG*dA*d[5mC]*dT*dT*dT*kG*kG*eG; antisense) [compound 548196]” to “548226 (eT*eA*kA*dG*dT*d[5mC]*dA*d[5mC]*d[5mC]*dA*dT*dA*dG*kA*k[5mC]*e[5mC]; antisense) [compound 548226]”, the “% inhibition” value rises from 6% to 39%.

With “548198 (eA*e[5mC]*kT*dG*d[5mC]*dA*dG*dG*d[5mC]*dA*dA*dT*dA*kT*kT*eT; antisense) [compound 548198]” the “% inhibition” value was 49%.

Same assay, conditions: HepaRG cells, electroporation with 1,000 nM antisense oligonucleotide, approx. 24 hours, PKK mRNA by RT-PCR (RTS3454), relative to untreated control cells; Table 26 experiment

Compared with “548280 (antisense e[5mC]*eT*k[5mC]*d[5mC]*d[5mC]*dT*d[5mC]*dT*dG*dT*dA*dA*dT*kG*kA*eT) [compound 548280]”, “548263 (antisense e[5mC]*eT*k[5mC]*dT*dA*d[5mC]*dA*dT*dA*d[5mC]*dT*d[5mC]*dA*kG*kG*eA) [compound 548263]” is higher in “% inhibition” value: 43% for the first, 62% for the second.

First: 548268 (antisense eT*eG*kT*dG*dT*d[5mC]*dT*dA*dG*dG*dG*dA*dG*kT*kT*eG) [compound 548268]
Second: 548229 (e[5mC]*eA*kT*dT*dG*dT*dT*dG*dT*dG*dT*dG*dG*k[5mC]*k[5mC]*e[5mC]; antisense) [compound 548229]
The “% inhibition” value of the first is higher: 52% for the first, 31% for the second.

Compared with “548233 (eA*eT*kT*dG*dT*dA*dG*d[5mC]*d[5mC]*dA*dT*dA*d[5mC]*kA*kT*e[5mC]; antisense) [compound 548233]”, “548297 (eA*e[5mC]*kT*d[5mC]*dT*d[5mC]*dA*dA*dG*d[5mC]*dT*d[5mC]*d[5mC]*kA*k[5mC]*eG; antisense) [compound 548297]” is lower in “% inhibition” value: 38% for the first, 32% for the second.

In the case of “548301 (e[5mC]*e[5mC]*kT*dA*dG*dT*dA*d[5mC]*dA*dA*dA*dG*dT*kG*kG*e[5mC]; antisense) [compound 548301]”, the “% inhibition” value is reported as 65%.

Same assay, conditions: HepaRG cells, electroporation with 1,000 nM antisense oligonucleotide, approximately 24 hours, primer probe set RTS3454, relative to untreated control cells; experiment of Table 23

Going from “547986 (antisense e[5mC]*eA*kG*d[5mC]*dG*dA*dA*dT*d[5mC]*dA*dT*d[5mC]*dT*kT*kT*eG) [compound 547986]” to “547925 (eG*eG*kT*d[5mC]*d[5mC]*dG*dA*d[5mC]*dA*d[5mC]*dA*d[5mC]*dA*kA*kA*eA; antisense) [compound 547925]”, the “% inhibition” value falls from 63% to 16%.

In the case of “547981 (antisense eT*e[5mC]*kT*dT*dT*dG*dT*dG*d[5mC]*dA*dA*dG*dT*k[5mC]*kT*e[5mC]) [compound 547981]”, the “% inhibition” value is reported as 76%.

Same assay, conditions: HepaRG cells, electroporation with 1,000 nM antisense oligonucleotide, approximately 24 hours, primer probe set RTS3454, relative to untreated control cells; experiment of Table 24

In the case of “548054 (eA*eA*kT*dT*d[5mC]*dA*dA*dA*dG*dG*dA*dG*d[5mC]*k[5mC]*kT*eG; antisense) [compound 548054]”, the “% inhibition” value is reported as 45%.

Same assay, conditions: Table 19; HepaRG cells, electroporation with 1,000 nM antisense oligonucleotide, approximately 24 hours; PKK mRNA by RT-PCR (RTS3454), relative to untreated control cells

Compared with “548088 (antisense eA*eA*k[5mC]*dT*dA*dA*dG*dG*dG*dA*d[5mC]*d[5mC]*dA*k[5mC]*k[5mC]*eT) [compound 548088]”, “548141 (eG*e[5mC]*kA*dG*dA*dT*dG*dA*dG*dG*dA*d[5mC]*d[5mC]*k[5mC]*k[5mC]*e[5mC]; antisense) [compound 548141]” is higher in “% inhibition” value: 27% for the first, 66% for the second.

Compared with “548116 (antisense eT*e[5mC]*kA*dT*dG*d[5mC]*dT*dG*dG*dT*dG*dA*d[5mC]*kT*kG*e[5mC]) [compound 548116]”, “548107 (antisense eT*e[5mC]*k[5mC]*dA*dT*dG*dT*dA*d[5mC]*dT*d[5mC]*dA*dG*k[5mC]*kG*eA) [compound 548107]” is higher in “% inhibition” value: 3% for the first, 76% for the second.

Going from “548122 (antisense e[5mC]*eT*k[5mC]*dT*dG*dG*dA*d[5mC]*dT*dG*d[5mC]*dT*dT*k[5mC]*kT*e[5mC]) [compound 548122]” to “548142 (eA*e[5mC]*kT*d[5mC]*dT*d[5mC]*d[5mC]*dA*dT*dG*d[5mC]*dT*dT*kT*kG*e[5mC]; antisense) [compound 548142]”, the “% inhibition” value falls from 55% to 44%.

Same assay, conditions: Table 20; HepaRG cells, electroporation with 1,000 nM antisense oligonucleotide, approximately 24 hours; PKK mRNA by RT-PCR (RTS3454), relative to untreated control cells

Compared with “547890 (eT*eT*kG*dT*dT*d[5mC]*d[5mC]*dG*dG*dT*dA*d[5mC]*dT*k[5mC]*kT*eG; antisense) [compound 547890]”, “547910 (eA*e[5mC]*k[5mC]*dA*dA*dT*dT*dT*d[5mC]*dT*dG*dA*dA*kA*kG*eG; antisense) [compound 547910]” is lower in “% inhibition” value: 97% for the first, 26% for the second.

Compared with “547901 (e[5mC]*eT*kG*dT*dA*d[5mC]*dT*dT*dT*dA*dA*dT*dA*kG*kG*e[5mC]; antisense) [compound 547901]”, “547876 (antisense eA*e[5mC]*kA*d[5mC]*dT*dG*d[5mC]*dT*dA*dA*d[5mC]*d[5mC]*dT*kT*kA*eG) [compound 547876]” is higher in “% inhibition” value: 77% for the first, 78% for the second.

Going from “547864 (antisense eT*eT*kG*dA*d[5mC]*dT*d[5mC]*d[5mC]*dT*d[5mC]*dT*d[5mC]*dA*kT*kA*eT) [compound 547864]” to “547919 (eG*eA*kA*d[5mC]*d[5mC]*d[5mC]*dT*dG*dG*d[5mC]*dA*dA*d[5mC]*kA*kT*e[5mC]; antisense) [compound 547919]”, the “% inhibition” value falls from 53% to 41%.

Same assay, conditions: Table 21 experiment; HepaRG cells, electroporation with 1,000 nM antisense oligonucleotide, approx. 24 hours; PKK mRNA by RT-PCR (RTS3454), relative to untreated control cells

Compared with “547811 (eA*e[5mC]*k[5mC]*dT*d[5mC]*dA*dT*d[5mC]*dT*dG*dG*d[5mC]*dA*kG*kT*eA; antisense) [compound 547811]”, “547813 (eG*eG*kT*dG*dG*dA*dA*dT*dG*dT*dG*d[5mC]*dA*k[5mC]*k[5mC]*eT; antisense) [compound 547813]” is lower in “% inhibition” value: 49% for the first, 34% for the second.

Compared with “547839 (eG*e[5mC]*kT*dT*d[5mC]*dA*dA*dG*dG*dA*dA*dT*dG*kT*k[5mC]*e[5mC]; antisense) [compound 547839]”, “547837 (eT*eG*kT*d[5mC]*d[5mC]*dA*dG*dA*dA*dA*d[5mC]*dT*dG*k[5mC]*kA*e[5mC]; antisense) [compound 547837]” is higher in “% inhibition” value: 35% for the first, 51% for the second.

Same assay, conditions: Table 22 experiment; HepaRG cells, electroporation with 1,000 nM antisense oligonucleotide, approx. 24 hours; PKK mRNA by RT-PCR (RTS3454), relative to untreated control cells

Going from “547890 (eT*eT*kG*dT*dT*d[5mC]*d[5mC]*dG*dG*dT*dA*d[5mC]*dT*k[5mC]*kT*eG; antisense) [compound 547890]” to “547910 (eA*e[5mC]*k[5mC]*dA*dA*dT*dT*dT*d[5mC]*dT*dG*dA*dA*kA*kG*eG; antisense) [compound 547910]”, the “% inhibition” value falls from 90% to 34%.

Compared with “547901 (e[5mC]*eT*kG*dT*dA*d[5mC]*dT*dT*dT*dA*dA*dT*dA*kG*kG*e[5mC]; antisense) [compound 547901]”, “547876 (antisense eA*e[5mC]*kA*d[5mC]*dT*dG*d[5mC]*dT*dA*dA*d[5mC]*d[5mC]*dT*kT*kA*eG) [compound 547876]” is lower in “% inhibition” value: 85% for the first, 59% for the second.

“547864 (antisense eT*eT*kG*dA*d[5mC]*dT*d[5mC]*d[5mC]*dT*d[5mC]*dT*d[5mC]*dA*kT*kA*eT) [compound 547864]” and “547919 (eG*eA*kA*d[5mC]*d[5mC]*d[5mC]*dT*dG*dG*d[5mC]*dA*dA*d[5mC]*kA*kT*e[5mC]; antisense) [compound 547919]” are the same in “% inhibition” value: 73% for the first, 73% for the second.

Same assay, conditions: Table 27; HepaRG cells, 1,000 nM antisense oligonucleotide; human PKK mRNA

Compared with “548362 (antisense eG*eA*k[5mC]*dA*dA*d[5mC]*d[5mC]*d[5mC]*dA*dT*d[5mC]*dA*dG*kT*kT*eG) [compound 548362]”, “548324 (eA*e[5mC]*kA*dT*dA*dA*dA*dT*dT*d[5mC]*d[5mC]*d[5mC]*d[5mC]*kA*k[5mC]*eA; antisense) [compound 548324]” is lower in “% inhibition” value: 33% for the first, 29% for the second.

Going from “548310 (eG*eA*kG*dG*dA*dG*dT*dT*dG*dG*dT*dT*dT*kA*kG*eT; antisense) [compound 548310]” to “548317 (e[5mC]*e[5mC]*kG*dG*dG*dA*dA*dA*dG*dA*d[5mC]*dT*dG*kT*k[5mC]*eT; antisense) [compound 548317]”, the “% inhibition” value rises from 0% to 42%.

For “548326 (eT*e[5mC]*k[5mC]*dT*dG*dT*dG*dA*d[5mC]*dA*dG*dA*dA*k[5mC]*k[5mC]*eA; antisense) [compound 548326]”, the “% inhibition” value was 27%.

Same assay, conditions: Table 28; HepaRG cells, 1,000 nM antisense oligonucleotide; human PKK mRNA

Compared with “548462 (eA*e[5mC]*k[5mC]*dT*dA*dT*dA*dT*d[5mC]*dA*d[5mC]*dT*dG*kT*kA*eA; antisense) [compound 548462]”, “548523 (antisense eG*eG*kT*dA*dA*dA*dT*d[5mC]*d[5mC]*dA*dT*d[5mC]*d[5mC]*k[5mC]*k[5mC]*eT) [compound 548523]” is higher in “% inhibition” value: 0% for the first, 44% for the second.

Same assay, conditions: Table 30; human PKK mRNA, HepaRG cells, 1,000 nM antisense oligonucleotide

First: 548419 (antisense e[5mC]*e[5mC]*kT*dA*dT*dA*dT*d[5mC]*dA*d[5mC]*dT*dG*dT*k[5mC]*k[5mC]*eT) [compound 548419]
Second: 548389 (eT*eT*kG*dA*dG*dG*dA*dA*dA*dG*dA*d[5mC]*d[5mC]*kT*kG*e[5mC]; antisense) [compound 548389]
The “% inhibition” value of the first is higher: 52% for the first, 11% for the second.

Compared with “548441 (antisense eT*e[5mC]*k[5mC]*dT*dA*dT*dA*dA*d[5mC]*dA*dG*dT*dA*kT*k[5mC]*eA) [compound 548441]”, “548417 (antisense eA*e[5mC]*kT*dG*dT*d[5mC]*d[5mC]*dT*dA*dT*dA*dA*d[5mC]*kT*k[5mC]*eT) [compound 548417]” is lower in “% inhibition” value: 42% for the first, 24% for the second.
